From ChEMBL document CHEMBL3885861, “Open TG-GATES”

Organism: Rattus norvegicus
Test: Open TG-GATES - Regimen: Single
Type: toxicity, organism-based, Sprague-Dawley
Design: regimen Single, gender Male, age 6 weeks
Details: in vivo, po, route gavage; for APTT / Bas / Eos / Fbg / Hb / Ht / Lym / MCH / MCHC / MCV / Mono / Neu / PT / Plat / RBC / Ret / WBC: tissue Blood; for KIDNEY_L / KIDNEY_R / KIDNEY_TOTAL: tissue Kidney; for LIVER: tissue Liver; for A/G / ALP / ALT / AST / BUN / CRE / Ca / Cl / DBIL / GLC / IP / K / LDH / Na / PL / RALB / TBIL / TC / TG / TP / gamma-GTP: tissue Plasma
[1] = 10 mg/kg, 3 h, dose level Middle
[2] = 10 mg/kg, 6 h, dose level Middle
[3] = 10 mg/kg, 9 h, dose level Middle
[4] = 10 mg/kg, 24 h, dose level Middle
[5] = 30 mg/kg, 24 h, dose level High

## Nc1c2c(nc3ccccc13)CCCC2 [TACRINE]
[1]
  TERMINAL_BW: 204.5 g
  APTT: 22.1 s
  Bas: 0%
  Eos: 0.8%
  Fbg: 297.8 mg/dL
  Hb: 13.3 g/dL
  Ht: 38.8%
  Lym: 70%
  MCH: 21.2 pg
  MCHC: 34.4%
  MCV: 61.5 fL
  Mono: 2.2%
  Neu: 26.8%
  PT: 16.5 s
  Plat: 123.9 x10_4/uL
  RBC: 630.4 x10_4/ul
  Ret: 8.5%
  WBC: 68 x10_2/uL
  KIDNEY_L: 0.9 g
  KIDNEY_R: 0.9 g
  KIDNEY_TOTAL: 1.8 g
  LIVER: 9.4 g
  A/G: 1.3
  ALP: 1472.8 IU/L
  ALT: 45 IU/L
  AST: 90.4 IU/L
  BUN: 11.8 mg/dL
  CRE: 0.2 mg/dL
  Ca: 10.6 mg/dL
  Cl: 106.4 meq/L
  DBIL: 0.006 mg/dL
  GLC: 213.4 mg/dL
  IP: 8.7 mg/dL
  K: 3.7 meq/L
  LDH: 205.8 IU/L
  Na: 141.8 meq/L
  PL: 140.4 mg/dL
  RALB: 3.2 g/dL
  TBIL: 0.03 mg/dL
  TC: 74.6 mg/dL
  TG: 66.6 mg/dL
  TP: 5.8 g/dL
  gamma-GTP: 1 IU/L
[2]
  TERMINAL_BW: 199.6 g
  APTT: 19.8 s
  Bas: 0%
  Eos: 0.6%
  Fbg: 317.2 mg/dL
  Hb: 13.6 g/dL
  Ht: 39.5%
  Lym: 75.4%
  MCH: 21 pg
  MCHC: 34.4%
  MCV: 60.8 fL
  Mono: 2%
  Neu: 21.2%
  PT: 15.6 s
  Plat: 119.2 x10_4/uL
  RBC: 649.6 x10_4/ul
  Ret: 7.8%
  WBC: 74.9 x10_2/uL
  KIDNEY_L: 0.9 g
  KIDNEY_R: 0.9 g
  KIDNEY_TOTAL: 1.8 g
  LIVER: 8.5 g
  A/G: 1.3
  ALP: 1669.4 IU/L
  ALT: 41.8 IU/L
  AST: 82.4 IU/L
  BUN: 10.6 mg/dL
  CRE: 0.2 mg/dL
  Ca: 10.6 mg/dL
  Cl: 107.4 meq/L
  DBIL: 0.002 mg/dL
  GLC: 201.2 mg/dL
  IP: 8.8 mg/dL
  K: 4.4 meq/L
  LDH: 290.6 IU/L
  Na: 141.8 meq/L
  PL: 161 mg/dL
  RALB: 3.1 g/dL
  TBIL: 0.028 mg/dL
  TC: 82.2 mg/dL
  TG: 50.8 mg/dL
  TP: 5.5 g/dL
  gamma-GTP: 1 IU/L
[3]
  TERMINAL_BW: 197 g
  APTT: 21.5 s
  Bas: 0%
  Eos: 1%
  Fbg: 312.4 mg/dL
  Hb: 13.4 g/dL
  Ht: 38.9%
  Lym: 76.2%
  MCH: 21.4 pg
  MCHC: 34.5%
  MCV: 61.9 fL
  Mono: 2.2%
  Neu: 20%
  PT: 15.9 s
  Plat: 119.1 x10_4/uL
  RBC: 628.6 x10_4/ul
  Ret: 7.5%
  WBC: 74.6 x10_2/uL
  KIDNEY_L: 0.9 g
  KIDNEY_R: 0.9 g
  KIDNEY_TOTAL: 1.8 g
  LIVER: 8.3 g
  A/G: 1.3
  ALP: 1332.6 IU/L
  ALT: 42.6 IU/L
  AST: 86.8 IU/L
  BUN: 11.8 mg/dL
  CRE: 0.1 mg/dL
  Ca: 10.7 mg/dL
  Cl: 107.4 meq/L
  DBIL: 0.004 mg/dL
  GLC: 183.8 mg/dL
  IP: 9.7 mg/dL
  K: 4.2 meq/L
  LDH: 186.8 IU/L
  Na: 142.2 meq/L
  PL: 137.8 mg/dL
  RALB: 3.1 g/dL
  TBIL: 0.026 mg/dL
  TC: 77 mg/dL
  TG: 43.6 mg/dL
  TP: 5.5 g/dL
  gamma-GTP: 1 IU/L
[4]
  TERMINAL_BW: 217.1 g
  APTT: 21.1 s
  Bas: 0%
  Eos: 1%
  Fbg: 305 mg/dL
  Hb: 13.5 g/dL
  Ht: 39.3%
  Lym: 79%
  MCH: 21.2 pg
  MCHC: 34.4%
  MCV: 61.6 fL
  Mono: 3%
  Neu: 15.8%
  PT: 15.9 s
  Plat: 116.9 x10_4/uL
  RBC: 638 x10_4/ul
  Ret: 7.4%
  WBC: 98.6 x10_2/uL
  KIDNEY_L: 1 g
  KIDNEY_R: 1 g
  KIDNEY_TOTAL: 2 g
  LIVER: 9.7 g
  A/G: 1.3
  ALP: 1669.4 IU/L
  ALT: 40.4 IU/L
  AST: 77.2 IU/L
  BUN: 17 mg/dL
  CRE: 0.2 mg/dL
  Ca: 11 mg/dL
  Cl: 106 meq/L
  DBIL: 0.004 mg/dL
  GLC: 183 mg/dL
  IP: 7.9 mg/dL
  K: 4.3 meq/L
  LDH: 229 IU/L
  Na: 141.4 meq/L
  PL: 161.6 mg/dL
  RALB: 3.1 g/dL
  TBIL: 0.022 mg/dL
  TC: 81 mg/dL
  TG: 97 mg/dL
  TP: 5.5 g/dL
  gamma-GTP: 1 IU/L
30 mg/kg, 3 h, dose level High
  TERMINAL_BW: 205 g
  APTT: 21.4 s
  Bas: 0%
  Eos: 0.6%
  Fbg: 313.8 mg/dL
  Hb: 13.4 g/dL
  Ht: 39.4%
  Lym: 71%
  MCH: 21.4 pg
  MCHC: 34.1%
  MCV: 62.7 fL
  Mono: 2.6%
  Neu: 25%
  PT: 16.4 s
  Plat: 124.7 x10_4/uL
  RBC: 628.2 x10_4/ul
  Ret: 8.7%
  WBC: 55.6 x10_2/uL
  KIDNEY_L: 0.9 g
  KIDNEY_R: 0.9 g
  KIDNEY_TOTAL: 1.9 g
  LIVER: 9 g
  A/G: 1.3
  ALP: 1523.2 IU/L
  ALT: 49.8 IU/L
  AST: 152.2 IU/L
  BUN: 12.6 mg/dL
  CRE: 0.2 mg/dL
  Ca: 10.4 mg/dL
  Cl: 103.8 meq/L
  DBIL: 0 mg/dL
  GLC: 269.6 mg/dL
  IP: 9.9 mg/dL
  K: 3.6 meq/L
  LDH: 369.4 IU/L
  Na: 139.2 meq/L
  PL: 142.6 mg/dL
  RALB: 3.2 g/dL
  TBIL: 0.022 mg/dL
  TC: 78 mg/dL
  TG: 69.8 mg/dL
  TP: 5.7 g/dL
  gamma-GTP: 1.2 IU/L
30 mg/kg, 6 h, dose level High
  TERMINAL_BW: 199.4 g
  APTT: 20.8 s
  Bas: 0%
  Eos: 0.4%
  Fbg: 327.2 mg/dL
  Hb: 14 g/dL
  Ht: 40.4%
  Lym: 67%
  MCH: 21.1 pg
  MCHC: 34.6%
  MCV: 61 fL
  Mono: 3%
  Neu: 29%
  PT: 15.7 s
  Plat: 124.5 x10_4/uL
  RBC: 662.6 x10_4/ul
  Ret: 7.7%
  WBC: 64.5 x10_2/uL
  KIDNEY_L: 0.9 g
  KIDNEY_R: 0.9 g
  KIDNEY_TOTAL: 1.8 g
  LIVER: 8.9 g
  A/G: 1.2
  ALP: 1476.6 IU/L
  ALT: 51.8 IU/L
  AST: 199.8 IU/L
  BUN: 13.4 mg/dL
  CRE: 0.2 mg/dL
  Ca: 10.6 mg/dL
  Cl: 106.4 meq/L
  DBIL: 0 mg/dL
  GLC: 221.4 mg/dL
  IP: 9.3 mg/dL
  K: 3.9 meq/L
  LDH: 347.2 IU/L
  Na: 142 meq/L
  PL: 146.4 mg/dL
  RALB: 3.3 g/dL
  TBIL: 0.02 mg/dL
  TC: 81.6 mg/dL
  TG: 45.4 mg/dL
  TP: 6 g/dL
  gamma-GTP: 1 IU/L
30 mg/kg, 9 h, dose level High
  TERMINAL_BW: 202.2 g
  APTT: 21 s
  Bas: 0%
  Eos: 0.4%
  Fbg: 339.6 mg/dL
  Hb: 13.4 g/dL
  Ht: 38.9%
  Lym: 53%
  MCH: 21 pg
  MCHC: 34.3%
  MCV: 61.3 fL
  Mono: 3%
  Neu: 43%
  PT: 15.6 s
  Plat: 128.9 x10_4/uL
  RBC: 634.8 x10_4/ul
  Ret: 8.3%
  WBC: 78.6 x10_2/uL
  KIDNEY_L: 0.9 g
  KIDNEY_R: 0.9 g
  KIDNEY_TOTAL: 1.8 g
  LIVER: 8.4 g
  A/G: 1.3
  ALP: 1511.6 IU/L
  ALT: 64.4 IU/L
  AST: 283 IU/L
  BUN: 11.6 mg/dL
  CRE: 0.2 mg/dL
  Ca: 10.7 mg/dL
  Cl: 106.2 meq/L
  DBIL: 0.004 mg/dL
  GLC: 222.6 mg/dL
  IP: 9 mg/dL
  K: 3.8 meq/L
  LDH: 264.6 IU/L
  Na: 141.4 meq/L
  PL: 160.2 mg/dL
  RALB: 3.3 g/dL
  TBIL: 0.012 mg/dL
  TC: 84 mg/dL
  TG: 42.2 mg/dL
  TP: 5.9 g/dL
  gamma-GTP: 1 IU/L
[5]
  TERMINAL_BW: 192.1 g
  APTT: 20.8 s
  Bas: 0%
  Eos: 1%
  Fbg: 351.6 mg/dL
  Hb: 14.3 g/dL
  Ht: 40.9%
  Lym: 84.4%
  MCH: 21.3 pg
  MCHC: 34.8%
  MCV: 61.2 fL
  Mono: 2.2%
  Neu: 12.4%
  PT: 16.1 s
  Plat: 130.3 x10_4/uL
  RBC: 668.8 x10_4/ul
  Ret: 6.7%
  WBC: 68.9 x10_2/uL
  KIDNEY_L: 0.9 g
  KIDNEY_R: 0.9 g
  KIDNEY_TOTAL: 1.8 g
  LIVER: 7.7 g
  A/G: 1.3
  ALP: 1513.8 IU/L
  ALT: 44.4 IU/L
  AST: 121.6 IU/L
  BUN: 15 mg/dL
  CRE: 0.2 mg/dL
  Ca: 10.8 mg/dL
  Cl: 107.8 meq/L
  DBIL: 0.008 mg/dL
  GLC: 187.6 mg/dL
  IP: 8.8 mg/dL
  K: 4.2 meq/L
  LDH: 259.6 IU/L
  Na: 142.2 meq/L
  PL: 140.4 mg/dL
  RALB: 3.2 g/dL
  TBIL: 0.042 mg/dL
  TC: 88.6 mg/dL
  TG: 31.6 mg/dL
  TP: 5.8 g/dL
  gamma-GTP: 1 IU/L
